Assay results taken from paper PMC10165104, “The immunosuppressive effects and mechanisms of loureirin B on collagen-induced arthritis in rats” (Frontiers in Immunology, 2023).

Biological target: T1, Kv1.3 (mKv1.3) voltage-gated potassium channel (Mus musculus, UniProt P16390)
T1 construct: gene Kcna3
Experiment: whole-cell voltage clamp of mKv1.[…] expressed in HEK293T cells
Format: cell-based

T1 sequence (P16390 whole entry): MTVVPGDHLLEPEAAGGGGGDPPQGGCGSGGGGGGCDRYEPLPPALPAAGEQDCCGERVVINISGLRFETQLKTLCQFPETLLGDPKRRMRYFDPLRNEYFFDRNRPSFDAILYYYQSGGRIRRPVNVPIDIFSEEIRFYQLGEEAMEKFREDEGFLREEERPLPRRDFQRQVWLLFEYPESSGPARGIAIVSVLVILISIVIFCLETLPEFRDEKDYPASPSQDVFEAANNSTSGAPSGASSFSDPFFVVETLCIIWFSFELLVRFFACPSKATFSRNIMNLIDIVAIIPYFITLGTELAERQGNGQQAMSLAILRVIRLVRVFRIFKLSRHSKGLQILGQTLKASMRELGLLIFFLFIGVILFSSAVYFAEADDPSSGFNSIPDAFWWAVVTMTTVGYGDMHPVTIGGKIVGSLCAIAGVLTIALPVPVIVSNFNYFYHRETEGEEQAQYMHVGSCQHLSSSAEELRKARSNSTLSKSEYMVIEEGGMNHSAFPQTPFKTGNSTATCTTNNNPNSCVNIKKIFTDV

IC50: 6.33 ± 0.49 µM
Compound: COc1cc(OC)c(CCC(=O)c2ccc(O)cc2)c(OC)c1 [LrB, Loureirin B]
